Several values for one entry are separate records, joined by “and”; a condition that tells them apart may be missing. Equal entries are not always repeated. Structures can show the parent of a compound that is named as a salt.
Tests used:
[1] = system: serum calcium; assay: 5/6 nephrectomized rats study: serum calcium level; type: in vivo, rat; parameters: Serum Ca levels: unit not given here; details: 5/6 Nx rats
Protocol: Rats were 5/6 nephrectomized in two steps. Under anesthesia (pentobarbital, 50 mg/kg; intraperitoneally) and analgesia (lidocaine; topically), two-thirds of the left kidney was removed, and then the right kidney was removed after a seven-day interval. Seven days after the completion of 5/6 nephrectomy, the FR-2 diet was changed to a high-phosphate diet, containing 0.6% calcium and 0.9% phosphate (Oriental Yeast Co., Ltd., Tokyo, Japan). Approximately 2 weeks after the initiation of the high-phosphate diet, the 5/6 Nx rats were divided into five groups (n = 12/group) matched in terms of their body weight as well as their blood urea nitrogen (BUN) and serum PTH and calcium levels.
In the single-dose study, blood samples were collected from the tail vein before and at 0.5, 2, 4, 8, 24, 48, and 72 h after the oral administration of vehicle (0.5% methyl cellulose solution) or evocalcet (0.03, 0.1, 0.3, or 1 mg/kg). In the repeated-dose study, vehicle or evocalcet was orally administered to the respective groups once daily for 14 days. Blood samples were obtained from the tail vein before the first administration and after the seventh and last administrations.
The serum PTH level was measured using a Rat Intact PTH ELISA kit (Immutopics, Inc., San Clemente, CA). The serum calcium, phosphate and BUN levels were measured using an auto analyzer (Hitachi High-Technologies Corporation., Tokyo, Japan) or the following test kits: the Calcium E-test WAKO, the Phospha C-test WAKO, or the Blood Urea nitrogen B-test WAKO (Wako Pure Chemical Industries, Ltd., Osaka, Japan).

[2] = rats; no reference given; cited from earlier work

SMILES: C[C@@H](N[C@H]1CCN(c2ccc(CC(=O)O)cc2)C1)c1cccc2ccccc12 [evocalcet]
- Serum Ca levels before (day 0) and 24 h after evocalcet administration, Mean ([1]; 0.03 mg/kg, day 0 (Before), group mean): 7.862
- Serum Ca levels before (day 0) and 24 h after evocalcet administration ([1]; 0.03 mg/kg, day 0 (Before), individual rats, 0.03 mg/kg): 6.475 and 7.379 and 7.410 and 6.746 and 6.842 and 8.689 and 8.077 and 8.881 and 8.577 and 8.645 and 8.453 and 8.169
- Serum Ca levels before (day 0) and 24 h after evocalcet administration, Mean ([1]; 0.03 mg/kg, day 7 (24 h), group mean): 6.700
- Serum Ca levels before (day 0) and 24 h after evocalcet administration ([1]; 0.03 mg/kg, day 7 (24 h), individual rats, 0.03 mg/kg): 4.756 and 6.463 and 7.204 and 6.649 and 7.424 and 7.568 and 6.316 and 6.947 and 6.611 and 7.154 and 6.338 and 6.972
- Serum Ca levels before (day 0) and 24 h after evocalcet administration, Mean ([1]; 0.03 mg/kg, day 14 (24 h), group mean): 7.524
- Serum Ca levels before (day 0) and 24 h after evocalcet administration ([1]; 0.03 mg/kg, day 14 (24 h), individual rats, 0.03 mg/kg): 6.629 and 7.365 and 7.620 and 6.148 and 7.312 and 8.717 and 7.991 and 8.107 and 7.192 and 7.532 and 7.865 and 7.809
- Serum Ca levels after the first administration, Mean ([1]; 0.03 mg/kg, time 0 h, group mean): 7.862
- Serum Ca levels after the first administration ([1]; 0.03 mg/kg, time 0 h, individual rats): 6.475 and 7.379 and 7.410 and 6.746 and 6.842 and 8.689
- Serum Ca levels after the first administration, Mean ([1]; 0.03 mg/kg, time 0.5 h, group mean): 7.066
- Serum Ca levels after the first administration ([1]; 0.03 mg/kg, time 0.5 h, individual rats): 5.843 and 6.570 and 6.547 and 6.666 and 6.639 and 7.943
- Serum Ca levels after the first administration, Mean ([1]; 0.03 mg/kg, time 2 h, group mean): 7.130
- Serum Ca levels after the first administration ([1]; 0.03 mg/kg, time 2 h, individual rats): 6.221 and 6.752 and 6.943 and 6.746 and 6.851 and 7.851
- Serum Ca levels after the first administration, Mean ([1]; 0.03 mg/kg, time 4 h, group mean): 7.511
- Serum Ca levels after the first administration ([1]; 0.03 mg/kg, time 4 h, individual rats): 6.129 and 7.183 and 6.895 and 7.539 and 6.860 and 8.183
- Serum Ca levels after the first administration, Mean ([1]; 0.03 mg/kg, time 8 h, group mean): 7.889
- Serum Ca levels after the first administration ([1]; 0.03 mg/kg, time 8 h, individual rats): 7.265 and 7.625 and 7.368 and 8.097 and 7.474 and 8.633
- Serum Ca levels after the first administration, Mean ([1]; 0.03 mg/kg, time 24 h, group mean): 7.657
- Serum Ca levels after the first administration ([1]; 0.03 mg/kg, time 24 h, individual rats): 7.337 and 7.644 and 7.429 and 7.568 and 7.040 and 8.620
- Serum Ca levels before (day 0) and 24 h after evocalcet administration, Mean ([1]; 0.1 mg/kg, day 0 (Before), group mean): 7.709
- Serum Ca levels before (day 0) and 24 h after evocalcet administration ([1]; 0.1 mg/kg, day 0 (Before), individual rats, 0.1 mg/kg): 7.331 and 8.275 and 7.642 and 7.659 and 8.173 and 8.364 and 6.513 and 7.933 and 8.070 and 7.690 and 6.674 and 8.180
- Serum Ca levels before (day 0) and 24 h after evocalcet administration, Mean ([1]; 0.1 mg/kg, day 7 (24 h), group mean): 7.317
- Serum Ca levels before (day 0) and 24 h after evocalcet administration ([1]; 0.1 mg/kg, day 7 (24 h), individual rats, 0.1 mg/kg): 7.427 and 8.099 and 7.493 and 7.242 and 7.637 and 7.025 and 6.448 and 7.138 and 7.123 and 6.680 and 7.302 and 8.184
- Serum Ca levels before (day 0) and 24 h after evocalcet administration, Mean ([1]; 0.1 mg/kg, day 14 (24 h), group mean): 7.011
- Serum Ca levels before (day 0) and 24 h after evocalcet administration ([1]; 0.1 mg/kg, day 14 (24 h), individual rats, 0.1 mg/kg): 7.048 and 7.642 and 6.969 and 7.601 and 6.617 and 6.853 and 5.928 and 7.145 and 7.117 and 6.576 and 7.375 and 7.261
- Serum Ca levels after the first administration, Mean ([1]; 0.1 mg/kg, time 0 h, group mean): 7.709
- Serum Ca levels after the first administration ([1]; 0.1 mg/kg, time 0 h, individual rats): 7.331 and 8.275 and 7.642 and 7.659 and 8.173 and 8.364 and 6.513 and 7.933 and 8.070 and 7.690 and 6.674
- Serum Ca levels after the first administration, Mean ([1]; 0.1 mg/kg, time 0.5 h, group mean): 6.755
- Serum Ca levels after the first administration ([1]; 0.1 mg/kg, time 0.5 h, individual rats): 6.761 and 6.580 and 6.840 and 7.344 and 6.409 and 6.926 and 6.241 and 6.919 and 6.445 and 6.968 and 6.307
- Serum Ca levels after the first administration, Mean ([1]; 0.1 mg/kg, time 2 h, group mean): 6.694
- Serum Ca levels after the first administration ([1]; 0.1 mg/kg, time 2 h, individual rats): 6.582 and 6.412 and 6.604 and 7.150 and 6.977 and 6.857 and 5.795 and 6.903 and 7.147 and 6.715 and 6.267
- Serum Ca levels after the first administration, Mean ([1]; 0.1 mg/kg, time 4 h, group mean): 7.099
- Serum Ca levels after the first administration ([1]; 0.1 mg/kg, time 4 h, individual rats): 7.060 and 7.085 and 7.028 and 7.482 and 7.364 and 7.406 and 5.948 and 7.326 and 7.361 and 7.050 and 6.742
- Serum Ca levels after the first administration, Mean ([1]; 0.1 mg/kg, time 8 h, group mean): 7.285
- Serum Ca levels after the first administration ([1]; 0.1 mg/kg, time 8 h, individual rats): 7.692 and 7.609 and 7.307 and 7.085 and 7.975 and 4.442 and 6.559 and 7.908 and 8.235 and 7.683
- Serum Ca levels after the first administration, Mean ([1]; 0.1 mg/kg, time 24 h, group mean): 7.626
- Serum Ca levels after the first administration ([1]; 0.1 mg/kg, time 24 h, individual rats): 7.618 and 8.042 and 7.976 and 7.739 and 7.539 and 7.979 and 6.079 and 7.486 and 8.194 and 7.356
- Serum Ca levels ([1]; 0.3 mg/kg, day 0 (before), group mean): 7.177
- Serum Ca levels ([1]; 0.3 mg/kg, day 0 (before), individual rats, 0.3 mg/kg): 7.714 and 7.098 and 4.207 and 6.520 and 8.019 and 4.857 and 7.006 and 8.419 and 8.245 and 7.878 and 7.711 and 8.450
- Serum Ca levels ([1]; 0.3 mg/kg, day 7 (24 h after administration), group mean): 5.744
- Serum Ca levels ([1]; 0.3 mg/kg, day 7 (24 h after administration), individual rats, 0.3 mg/kg): 6.617 and 4.991 and 5.484 and 4.834 and 5.302 and 6.718 and 6.297 and 6.366 and 7.085 and 5.154 and 4.887 and 5.195
- Serum Ca levels ([1]; 0.3 mg/kg, day 14 (24 h after administration), group mean): 5.948
- Serum Ca levels ([1]; 0.3 mg/kg, day 14 (24 h after administration), individual rats, 0.3 mg/kg): 6.601 and 5.324 and 6.337 and 4.673 and 5.104 and 7.592 and 6.733 and 6.057 and 5.865 and 5.887 and 5.547 and 5.661
- Serum Ca levels after the first administration, Mean ([1]; 0.3 mg/kg, time 0 h, group mean): 7.177
- Serum Ca levels after the first administration, Mean ([1]; 0.3 mg/kg, time 0.5 h, group mean): 6.778
- Serum Ca levels after the first administration, Mean ([1]; 0.3 mg/kg, time 2 h, group mean): 6.136
- Serum Ca levels after the first administration, Mean ([1]; 0.3 mg/kg, time 4 h, group mean): 6.714
- Serum Ca levels after the first administration, Mean ([1]; 0.3 mg/kg, time 8 h, group mean): 7.218
- Serum Ca levels after the first administration, Mean ([1]; 0.3 mg/kg, time 24 h, group mean): 7.101
- Serum Ca levels ([1]; 1 mg/kg, day 0 (before), group mean): 7.784
- Serum Ca levels ([1]; 1 mg/kg, day 0 (before), individual rats, 1 mg/kg): 7.396 and 7.591 and 7.831 and 7.728 and 8.433 and 7.868 and 8.231 and 7.824 and 8.217 and 9.292 and 6.900 and 6.102
- Serum Ca levels ([1]; 1 mg/kg, day 7 (24 h after administration), group mean): 5.027
- Serum Ca levels ([1]; 1 mg/kg, day 7 (24 h after administration), individual rats, 1 mg/kg): 5.540 and 3.798 and 5.148 and 4.511 and 4.963 and 5.487 and 4.665 and 5.044 and 4.307 and 5.493 and 4.570 and 6.793
- Serum Ca levels ([1]; 1 mg/kg, day 14 (24 h after administration), group mean): 4.801
- Serum Ca levels ([1]; 1 mg/kg, day 14 (24 h after administration), individual rats, 1 mg/kg): 5.359 and 3.730 and 4.903 and 4.736 and 4.928 and 5.192 and 4.708 and 5.906 and 3.598 and 4.859 and 4.220 and 5.475
- Serum Ca levels after the first administration, Mean ([1]; 1 mg/kg, time 0 h, group mean): 7.784
- Serum Ca levels after the first administration, Mean ([1]; 1 mg/kg, time 0.5 h, group mean): 6.460
- Serum Ca levels after the first administration, Mean ([1]; 1 mg/kg, time 2 h, group mean): 5.290
- Serum Ca levels after the first administration, Mean ([1]; 1 mg/kg, time 4 h, group mean): 5.870
- Serum Ca levels after the first administration, Mean ([1]; 1 mg/kg, time 8 h, group mean): 6.299
- Serum Ca levels after the first administration, Mean ([1]; 1 mg/kg, time 24 h, group mean): 6.253
- Doses that steadily decreased the serum calcium level ([1]; once daily oral for 14 days, 24 h after administration on days 7 and 14): ≥ 0.3 mg/kg
- Doses that significantly decreased the serum calcium level ([1]; single oral dose, vs vehicle group): ≥ 0.1 mg/kg

SMILES: C[C@@H](NCCCc1cccc(C(F)(F)F)c1)c1cccc2ccccc12 [cinacalcet, Cinacalcet hydrochloride, reference compound]
- bioavailability [2]: 1%-2%

From PMC5882164, “A novel calcimimetic agent, evocalcet (MT-4580/KHK7580), suppresses the parathyroid cell function with little effect on the gastrointestinal tract or CYP isozymes in vivo and in vitro” (PLoS ONE, 2018)
